# Article PMC9388697 (Biometals : an international journal on the role of metal …, 2022)
# Molecular target: Mar2 (Thermoanaerobacterium thermosaccharolyticum, UniProt D9TSN9, K173F/K351T)
# Test: lactate racemase activity, L-lactate determined with Megazyme kit
# Assay type: biochemical
# Conditions: 200 mM D-lactate; in vitro synthesized NPN; 35 °C; 30 min
smiles,measurement,value
C[C@@H](O)C(=O)O [D-lactate],% of TtLarA activity,a small but substantial lactate racemase (Lar) activity was detected for the purified enzymes
